Calls of active or inactive are those of the source.
Key:
[1] = biological target: Sphingosine 1-phosphate receptor 1 (Homo sapiens, UniProt P21453); experiment: Fluorescence-based counterscreen assay for S1P4 agonists: Cell-based dose response high throughput screening assay to identify agonists of the Sphingosine 1-Phosphate Receptor 1 (S1P1). [Related pubchem assays (depositor defined):AID1509, AID1523, AID1801, AID463107, AID463118, AID463119, AID463122, AID463123, AID463129, AID463225, AID504400, AID504460]; format: functional
[2] = biological target: T1, Sphingosine 1-phosphate receptor 4 (Homo sapiens, UniProt O95977); experiment: Fluorescence dose response cell-based high throughput screening assay for agonists of the Sphingosine 1-Phosphate Receptor 4 (S1P4). [Related pubchem assays: 1509 (Primary screen.), 1523 (Confirmation screen in triplicates.)]; format: functional
T1 sequence (O95977 whole entry): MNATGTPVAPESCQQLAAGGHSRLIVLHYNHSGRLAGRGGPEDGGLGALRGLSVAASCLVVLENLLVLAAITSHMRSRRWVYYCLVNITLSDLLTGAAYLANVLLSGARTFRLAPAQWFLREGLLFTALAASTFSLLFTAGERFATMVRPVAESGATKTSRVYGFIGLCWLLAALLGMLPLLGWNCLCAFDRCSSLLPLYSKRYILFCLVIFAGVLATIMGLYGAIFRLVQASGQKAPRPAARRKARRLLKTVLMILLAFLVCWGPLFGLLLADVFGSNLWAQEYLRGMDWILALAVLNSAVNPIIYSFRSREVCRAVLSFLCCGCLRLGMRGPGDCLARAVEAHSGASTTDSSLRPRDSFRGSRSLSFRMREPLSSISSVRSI

Troponin, cardiac muscle = Troponin, cardiac muscle (Homo sapiens, UniProt P19429+P45379+P63316); experiment: Fluorescence-based biochemical high throughput dose response assay for activators of the calcium sensitivity of cardiac Regulated Thin Filaments (RTF). [Related pubchem assays (depositor defined):AID493008, AID493018, AID504382, AID504383]; format: protein-complex assay
[3] = biological target: G-protein coupled receptor 55 (Homo sapiens, UniProt Q9Y2T6); experiment: GPR55 antagonists blocking LPI-driven arrestin recruitment, primary screen, imaging, U2OS, beta-arrestin-GFP, LPI agonist (AID 2013); format: functional;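 further: antagonist potency measured as reduced agonist-driven arrestin aggregation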
Cannabinoid receptor 2 [4] = biological target: T2, Cannabinoid receptor 2 (Homo sapiens, UniProt P34972); experiment: SAR analysis of agonists of the Cannabinoid Receptor 2 using an Image-Based Assay. [Related pubchem assays (depositor defined):AID2013, AID2026]; format: functional
Cannabinoid receptor 2 [5] = biological target: T2, Cannabinoid receptor 2; experiment: SAR analysis of antagonists of the Cannabinoid Receptor 2 using an Image-Based Assay. [Related pubchem assays (depositor defined):AID2013, AID2026]; format: functional
Cannabinoid receptor 1 [6] = biological target: T3, Cannabinoid receptor 1 (Homo sapiens, UniProt P21554); experiment: SAR analysis of agonists of the Cannabinoid Receptor 1 using an Image-Based Assay - Set 2. [Related pubchem assays (depositor defined):AID2013, AID2026]; format: functional
[7] = biological target: T4, G-protein coupled receptor 35 (Homo sapiens, UniProt Q9HC97); experiment: SAR analysis of Antagonists of the GPR35 Receptor using an Image-Based Assay - Set 3. [Related pubchem assays (depositor defined):AID2013, AID2026]; format: functional
Cannabinoid receptor 1 [8] = biological target: T3, Cannabinoid receptor 1; experiment: SAR analysis of antagonists of the Cannabinoid Receptor 1 using an Image-Based Assay - Set 2. [Related pubchem assays (depositor defined):AID2013, AID2026]; format: functional
[9] = biological target: T4, G-protein coupled receptor 35; experiment: SAR analysis of Agonists of the GPR35 Receptor using an Image-Based Assay - Set 2. [Related pubchem assays (depositor defined):AID2013, AID2026]; format: functional
[10] = biological target: T5, Tyrosine-protein phosphatase non-receptor type 7 (Homo sapiens, UniProt P35236); experiment: redox-dependent HePTP inhibition, mechanism study, biochemical, fluorescence (AID 2068); format: functional
T5 sequence (P35236 whole entry): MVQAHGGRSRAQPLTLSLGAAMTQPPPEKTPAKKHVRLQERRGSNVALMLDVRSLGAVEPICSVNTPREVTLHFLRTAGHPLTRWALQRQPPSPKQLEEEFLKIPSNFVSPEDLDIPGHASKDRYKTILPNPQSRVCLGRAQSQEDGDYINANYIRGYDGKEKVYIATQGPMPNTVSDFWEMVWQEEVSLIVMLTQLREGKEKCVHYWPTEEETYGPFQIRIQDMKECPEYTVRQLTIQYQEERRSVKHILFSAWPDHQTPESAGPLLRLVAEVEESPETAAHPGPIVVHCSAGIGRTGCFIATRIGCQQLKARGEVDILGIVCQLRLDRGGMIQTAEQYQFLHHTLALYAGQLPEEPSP

Vero [11] = experiment: West Nile virus antiviral activity, cell-based, CPE readout (AID 1621); format: functional; conditions: Chlorocebus sabaeus
Vero [12] = experiment: cytotoxicity of synthesized analogs in Vero 76, SAR follow-up, cytotoxicity control for West Nile virus antiviral project, Vero 76 cells (AID 2414); format: functional; conditions: Chlorocebus sabaeus
Vero [13] = experiment: West Nile virus CPE inhibition, SAR follow-up, cell-based, synthesized analogs (AID 2238); format: functional; conditions: Chlorocebus sabaeus
Vero [14] = experiment: cytotoxicity of synthesized analogs in Vero cells, SAR follow-up, cytotoxicity control for West Nile virus antiviral project, cell-based, set II (AID 2402); format: functional; conditions: Chlorocebus sabaeus
Vero [15] = experiment: Vero E6 cell cytotoxicity, SAR follow-up, cytotoxicity control for West Nile virus antiviral project, synthesized analogs (AID 2244); format: functional; conditions: Chlorocebus sabaeus
[16] = mammalian cell cytotoxicity, dose response, cytotoxicity control, plate reader, cherry-pick samples (AID 504397); format: functional, cell-based
[17] = biological target: Dual specificity protein phosphatase 3 (Homo sapiens, UniProt P51452); experiment: SAR VHR1 Fluorescent Assay for In Vitro dose response studies Set 2. [Related pubchem assays (depositor defined):AID1654, AID1661, AID1878]; format: functional
[18] = biological target: T6, Kappa-type opioid receptor (Homo sapiens, UniProt P41145); experiment: KOR agonist analogs, imaging readout, SAR follow-up, image-based (AID 2359); format: functional
[19] = biological target: T5, Tyrosine-protein phosphatase non-receptor type 7; experiment: SAR analysis of chemical inhibitors of HePTP using a Fluorescent assay - Set 2. [Related pubchem assays (depositor defined):AID1059, AID1077, AID1661, AID2085, AID521]; format: functional
[20] = biological target: T7, Delta-type opioid receptor (Homo sapiens, UniProt P41143); experiment: DOR antagonists, SAR follow-up, image-based (AID 2357); format: functional
[21] = biological target: T6, Kappa-type opioid receptor; experiment: KOR antagonists by imaging, SAR follow-up, image-based (AID 2348); format: functional
Mu-type opioid receptor [22] = biological target: T8, Mu-type opioid receptor (Homo sapiens, UniProt P35372); experiment: MOR agonists by imaging, SAR follow-up, image-based (AID 2352); format: functional
[23] = biological target: T7, Delta-type opioid receptor; experiment: DOR agonists, SAR follow-up, image-based (AID 2370); format: functional
Mu-type opioid receptor [24] = biological target: T8, Mu-type opioid receptor; experiment: MOR antagonists, SAR follow-up, image-based (AID 2420); format: functional;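 further: compounds added before stimulation of receptor with agonist DAMGO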
[25] = biological target: T6, Kappa-type opioid receptor; experiment: kappa opioid receptor blockers, cell-based, luminescence, beta-arrestin, SAR follow-up (AID 2285); format: functional
Exodeoxyribonuclease V = Exodeoxyribonuclease V (Escherichia coli (strain K12), UniProt P04993+P07648+P08394); experiment: E. coli RecBCD inhibitors, dose response, counter-screen for AddAB inhibitor project, absorbance, V66 E. coli, mutant T4 phage (AID 492957); format: functional, cell-based, Escherichia coli str. K-12 substr. MG1655
[26] = Counterscreen for AddAB inhibitors: absorbance-based bacterial cell-based high throughput dose response assay for inhibitors of bacterial viability. [Related pubchem assays (depositor defined):AID435030, AID449728, AID449731, AID488942, AID488955, AID488956]; format: functional
[27] = biological target: T6, Kappa-type opioid receptor; experiment: SAR analysis of Antagonists of the Kappa Opioid Receptor (KOR) using an Image-Based Assay - Set 2. [Related pubchem assays (depositor defined):AID1777, AID1785, AID1786, AID1966, AID2133, AID2136, AID2284, AID2285, AID2348]; format: functional
[28] = biological target: T6, Kappa-type opioid receptor; experiment: SAR analysis of Agonists of the Kappa Opioid Receptor (KOR) using an Image-Based Assay - Set 2. [Related pubchem assays (depositor defined):AID1777, AID1786, AID1966, AID2133, AID2136, AID2284, AID2285, AID2359]; format: functional
Mu-type opioid receptor [29] = biological target: T8, Mu-type opioid receptor; experiment: SAR Analysis of Agonists of the MOR Receptor using an Image-Based Assay - Set 3. [Related pubchem assays (depositor defined):AID1777, AID1785, AID1786, AID1966, AID2133, AID2136, AID2284, AID2285, AID2352]; format: functional
[30] = biological target: T6, Kappa-type opioid receptor; experiment: SAR analysis of small molecule agonists of the kappa opioid receptor via a luminescent beta-arrestin assay - Set 3. [Related pubchem assays (depositor defined):AID1777, AID1785, AID1786, AID1966, AID2133, AID2136, AID2284, AID2500]; format: functional
[31] = biological target: T6, Kappa-type opioid receptor; experiment: KOR agonist analogs, arrestin-GFP redistribution, SAR follow-up, imaging, image-based, set 3 (AID 488833); format: functional
Mu-type opioid receptor [32] = biological target: T8, Mu-type opioid receptor; experiment: SAR Analysis of Agonists of the MOR Receptor using an Image-Based Assay - Set 2. [Related pubchem assays (depositor defined):AID1777, AID1785, AID1786, AID1966, AID2133, AID2136, AID2284, AID2285, AID2352]; format: functional
Mu-type opioid receptor [33] = biological target: T8, Mu-type opioid receptor; experiment: SAR Analysis of Antagonists of the MOR Receptor using an Image-Based Assay - Set 2. [Related pubchem assays (depositor defined):AID1777, AID1785, AID1786, AID1966, AID2133, AID2136, AID2284, AID2285, AID2420]; format: functional
[34] = biological target: T7, Delta-type opioid receptor; experiment: SAR Analysis of Antagonists of the DOR Receptor using an Image-Based Assay - Set 2. [Related pubchem assays (depositor defined):AID1777, AID1785, AID1786, AID1966, AID2133, AID2136, AID2284, AID2285, AID2357]; format: functional
[35] = biological target: T6, Kappa-type opioid receptor; experiment: SAR analysis of small molecule agonists of the kappa opioid receptor via a luminescent beta-arrestin assay - Set 2. [Related pubchem assays (depositor defined):AID1777, AID1785, AID1786, AID1966, AID2133, AID2136, AID2284, AID449737]; format: functional
[36] = biological target: T7, Delta-type opioid receptor; experiment: SAR Analysis of Agonists of the DOR Receptor using an Image-Based Assay - Set 3. [Related pubchem assays (depositor defined):AID1777, AID1786]; format: functional
[37] = biological target: T7, Delta-type opioid receptor; experiment: SAR Analysis of Agonists of the DOR Receptor using an Image-Based Assay - Set 2. [Related pubchem assays (depositor defined):AID1777, AID1785, AID1786, AID1966, AID2133, AID2136, AID2284, AID2285, AID2370]; format: functional

T8 sequence (P35372 whole entry): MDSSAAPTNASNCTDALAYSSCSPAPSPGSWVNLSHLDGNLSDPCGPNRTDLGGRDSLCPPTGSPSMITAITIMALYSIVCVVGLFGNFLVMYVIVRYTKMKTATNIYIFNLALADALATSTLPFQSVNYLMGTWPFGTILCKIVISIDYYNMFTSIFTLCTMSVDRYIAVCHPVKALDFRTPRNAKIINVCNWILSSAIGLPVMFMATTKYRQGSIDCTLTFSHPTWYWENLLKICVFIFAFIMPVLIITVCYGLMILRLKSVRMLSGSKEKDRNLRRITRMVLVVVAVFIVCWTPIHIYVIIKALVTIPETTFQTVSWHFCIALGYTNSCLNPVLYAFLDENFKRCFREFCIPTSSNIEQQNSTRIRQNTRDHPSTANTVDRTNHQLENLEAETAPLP
T6 sequence (P41145 whole entry): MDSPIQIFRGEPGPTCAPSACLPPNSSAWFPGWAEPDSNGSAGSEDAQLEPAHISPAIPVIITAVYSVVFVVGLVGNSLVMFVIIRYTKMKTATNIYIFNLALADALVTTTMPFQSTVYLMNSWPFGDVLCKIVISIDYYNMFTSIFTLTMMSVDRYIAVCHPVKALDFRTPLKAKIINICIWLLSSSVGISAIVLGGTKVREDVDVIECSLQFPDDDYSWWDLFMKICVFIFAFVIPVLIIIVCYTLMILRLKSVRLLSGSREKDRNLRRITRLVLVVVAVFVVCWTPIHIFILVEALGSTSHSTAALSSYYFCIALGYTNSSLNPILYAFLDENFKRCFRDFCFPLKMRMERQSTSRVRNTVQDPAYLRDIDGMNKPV
T7 sequence (P41143 whole entry): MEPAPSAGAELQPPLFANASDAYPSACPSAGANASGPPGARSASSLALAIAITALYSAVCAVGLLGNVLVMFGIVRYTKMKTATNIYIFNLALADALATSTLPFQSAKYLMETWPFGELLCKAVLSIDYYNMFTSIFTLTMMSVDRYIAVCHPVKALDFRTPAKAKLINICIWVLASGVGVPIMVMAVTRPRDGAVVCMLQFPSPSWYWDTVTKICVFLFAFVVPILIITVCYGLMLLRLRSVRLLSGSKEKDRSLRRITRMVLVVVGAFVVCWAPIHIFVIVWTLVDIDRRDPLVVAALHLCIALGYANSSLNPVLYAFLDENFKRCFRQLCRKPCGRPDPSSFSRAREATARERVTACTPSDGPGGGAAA
T3 sequence (P21554 whole entry): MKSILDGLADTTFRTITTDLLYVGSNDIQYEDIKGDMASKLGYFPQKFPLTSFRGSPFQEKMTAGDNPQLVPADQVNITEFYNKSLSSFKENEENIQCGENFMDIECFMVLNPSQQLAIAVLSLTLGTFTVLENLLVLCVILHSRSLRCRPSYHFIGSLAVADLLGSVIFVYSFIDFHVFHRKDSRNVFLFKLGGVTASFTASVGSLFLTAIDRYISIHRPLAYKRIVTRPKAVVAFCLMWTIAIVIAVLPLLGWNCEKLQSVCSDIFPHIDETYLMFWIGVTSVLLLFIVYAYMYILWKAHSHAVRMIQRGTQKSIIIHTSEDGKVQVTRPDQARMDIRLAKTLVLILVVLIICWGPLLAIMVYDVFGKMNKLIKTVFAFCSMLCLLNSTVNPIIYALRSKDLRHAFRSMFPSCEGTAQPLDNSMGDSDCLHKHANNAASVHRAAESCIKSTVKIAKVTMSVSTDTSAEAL
T2 sequence (P34972 whole entry): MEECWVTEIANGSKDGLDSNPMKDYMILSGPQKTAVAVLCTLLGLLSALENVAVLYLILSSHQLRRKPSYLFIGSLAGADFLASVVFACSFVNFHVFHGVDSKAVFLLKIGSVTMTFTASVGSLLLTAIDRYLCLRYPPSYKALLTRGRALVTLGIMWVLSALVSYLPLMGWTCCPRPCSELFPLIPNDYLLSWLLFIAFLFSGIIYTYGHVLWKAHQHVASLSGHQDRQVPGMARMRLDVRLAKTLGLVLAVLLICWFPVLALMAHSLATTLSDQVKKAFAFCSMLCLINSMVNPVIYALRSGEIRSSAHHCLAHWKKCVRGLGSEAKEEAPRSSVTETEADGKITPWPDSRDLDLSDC
T4 sequence (Q9HC97 whole entry): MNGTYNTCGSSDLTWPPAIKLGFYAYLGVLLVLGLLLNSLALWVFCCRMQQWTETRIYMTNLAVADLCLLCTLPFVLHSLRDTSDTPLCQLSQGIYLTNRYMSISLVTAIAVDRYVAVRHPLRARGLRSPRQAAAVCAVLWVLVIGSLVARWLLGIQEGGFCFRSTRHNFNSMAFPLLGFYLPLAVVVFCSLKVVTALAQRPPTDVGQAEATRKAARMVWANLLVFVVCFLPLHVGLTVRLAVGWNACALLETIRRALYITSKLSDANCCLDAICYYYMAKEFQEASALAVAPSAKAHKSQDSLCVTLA
Sequence of G-protein coupled receptor 55 (Q9Y2T6 whole entry): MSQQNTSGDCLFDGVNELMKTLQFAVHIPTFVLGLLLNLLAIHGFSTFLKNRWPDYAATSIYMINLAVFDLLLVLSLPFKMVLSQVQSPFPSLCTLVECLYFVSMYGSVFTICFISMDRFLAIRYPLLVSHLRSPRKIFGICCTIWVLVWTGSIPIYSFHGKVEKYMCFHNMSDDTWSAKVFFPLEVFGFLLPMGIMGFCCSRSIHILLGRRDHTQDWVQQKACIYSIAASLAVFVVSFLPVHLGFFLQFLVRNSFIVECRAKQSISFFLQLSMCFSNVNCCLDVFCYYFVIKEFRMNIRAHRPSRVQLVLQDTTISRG
Sequence of Sphingosine 1-phosphate receptor 1 (P21453 whole entry): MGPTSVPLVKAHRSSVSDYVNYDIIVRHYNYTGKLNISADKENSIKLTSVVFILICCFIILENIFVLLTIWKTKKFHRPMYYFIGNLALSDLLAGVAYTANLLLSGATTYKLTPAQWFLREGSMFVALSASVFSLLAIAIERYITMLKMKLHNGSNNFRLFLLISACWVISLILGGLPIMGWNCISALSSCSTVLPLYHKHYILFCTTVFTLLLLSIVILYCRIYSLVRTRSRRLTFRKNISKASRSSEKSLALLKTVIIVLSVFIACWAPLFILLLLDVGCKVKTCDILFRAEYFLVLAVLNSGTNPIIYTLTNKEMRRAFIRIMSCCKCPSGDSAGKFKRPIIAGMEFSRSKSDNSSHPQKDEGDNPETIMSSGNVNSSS
Sequence of Dual specificity protein phosphatase 3 (P51452 whole entry): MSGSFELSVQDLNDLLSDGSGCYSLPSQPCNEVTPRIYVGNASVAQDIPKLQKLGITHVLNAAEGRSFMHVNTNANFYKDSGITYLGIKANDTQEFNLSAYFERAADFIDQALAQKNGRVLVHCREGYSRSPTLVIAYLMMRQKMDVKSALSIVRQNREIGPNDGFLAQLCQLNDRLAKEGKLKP

CC(=O)c1cc2ccc(O)cc2oc1=O
EC50 [1]: 4.14 µM (active)
EC50 [2]: 1.88 µM (active)

O=C(NC1CCCCC1)c1cc2nc3c(c(C(F)(F)F)n2n1)CCCC3
EC50 (Troponin, cardiac muscle): > 71.5 µM (inactive)

Cc1ccc(C2(C(=O)N3CCC(n4nc(-c5ccccc5)oc4=O)CC3)CC2)cc1
IC50 [3]: 4.28 µM (active)
EC50 (Cannabinoid receptor 2 [4]): > 32 µM (inactive)
IC50 (Cannabinoid receptor 2 [5]): > 32 µM (inactive)
EC50 (Cannabinoid receptor 1 [6]): > 32 µM (inactive)
IC50 [7]: > 32 µM (inactive)
IC50 (Cannabinoid receptor 1 [8]): 17.7 µM (inactive)
EC50 [9]: > 32 µM (inactive)

CCOc1ccc(NC(=O)Nc2ccc3nc(-c4ccco4)c(-c4ccco4)nc3c2)cc1
IC50 [10]: 10.4 µM (active)

O=C(CSc1nc2ccccc2c(=O)n1-c1ccc(F)cc1)Nc1ccc2c(c1)CCC2
IC50 (Vero [11]): 20.6 µM (active)
CC50 (Vero [12]): > 133 µM (active)
IC50 (Vero [13]): 24.5 µM (active)
CC50 (Vero [14]): > 200 µM (active)
CC50 (Vero [15]): > 80 µM (active)

C=CCn1c(SCc2ccc(C#N)cc2)nnc1-c1ccc(C)cc1
AC50 [16]: 98.3 µM (active)

O=C(NC(NC(=S)Nc1ccc(Cl)cc1Cl)C(Cl)(Cl)Cl)OCc1ccccc1 (centres undefined)
IC50 [17]: > 100 µM (inactive)
EC50 [18]: > 32 µM (inactive)
IC50 [19]: > 100 µM (inactive)
IC50 [20]: > 32 µM (inactive)
IC50 [21]: 0.879 µM (active)
EC50 (Mu-type opioid receptor [22]): > 32 µM (inactive)
EC50 [23]: > 32 µM (inactive)
IC50 (Mu-type opioid receptor [24]): > 32 µM (inactive)
IC50 [25]: 2.09 µM (active)

O=C(N/N=C\c1cccc(Cl)c1)c1ccc(Cn2cc(Br)c([N+](=O)[O-])n2)o1
IC50 (Exodeoxyribonuclease V): > 119 µM (inactive)
IC50 [26]: > 119 µM (inactive)

Clc1ccc(CSc2nnc(-c3ccccn3)n2Cc2cccs2)c(Cl)c1
IC50 [27]: > 32 µM (inactive)
EC50 [28]: 8.11 µM (active)
EC50 (Mu-type opioid receptor [29]): > 32 µM (inactive)
EC50 [30]: 1.38 µM (active)
EC50 [31]: 0.694 µM (active)
EC50 (Mu-type opioid receptor [32]): > 32 µM (inactive)
IC50 (Mu-type opioid receptor [33]): > 32 µM (inactive)
IC50 [34]: > 32 µM (inactive)
EC50 [35]: 2.27 µM (active)
EC50 [36]: > 64 µM (inactive)
EC50 [37]: > 32 µM (inactive)

From ChEMBL document CHEMBL1201862, “PubChem BioAssay data set” (2004)
